Results published in US20170266155A1, “METHOD FOR ENHANCING THE OXYGENATION LEVEL OF TISSUE CELLS AS AN ALTERNATIVE METHOD FOR HYPERBARIC OXYGEN THERAPY” (National Sun Yat-sen University, priority 2016, published 2017).

Target: hemoglobin (Hb) (Homo sapiens, UniProt P68871+P69905)
Assay: Oxygen equilibrium curves and P50 value of hemoglobin (Hb)
Format: biochemical
Conditions: for effect of phthalide compound together with 2,3-BPG on oxygen release efficiency of hemoglobin (Hb): combined with 2,3-BPG (FIG. 1)
Source text: The oxygen affinity of hemoglobin (Hb) is commonly characterized by P50 value. The P50 value is the required oxygen partial pressure to achieve 50% oxygen saturation of hemoglobin. […] An increased blood PCO2, a decreased pH or an increased 2,3-BPG level in erythrocytes can all decrease the oxygen affinity of hemoglobin (Hb), so that the oxygen equilibrium curve shifts to the right and the P50 value increases (as shown in FIG. 2); contrarily, when the oxygen affinity of hemoglobin (Hb) increases, the oxygen equilibrium curve shifts to the left and the P50 value decreases.
The oxygen affinity of hemoglobin (Hb) was commonly characterized by P50 value. The P50 value was the required oxygen partial pressure to achieve 50% oxygen saturation for hemoglobin. […] An increased blood PCO2, a decreased pH or an increased 2,3-BPG concentration in erythrocytes could decrease the oxygen affinity of hemoglobin (Hb), as a result, the oxygen equilibrium curve shifted to the right and the P50 value increased (as shown in FIG. 2); contrarily, when the oxygen affinity of hemoglobin (Hb) increased, the oxygen equilibrium curve shifted to the left and the P50 value decreased.

Chain of hemoglobin (Hb) (P69905 2-142 limits assumed): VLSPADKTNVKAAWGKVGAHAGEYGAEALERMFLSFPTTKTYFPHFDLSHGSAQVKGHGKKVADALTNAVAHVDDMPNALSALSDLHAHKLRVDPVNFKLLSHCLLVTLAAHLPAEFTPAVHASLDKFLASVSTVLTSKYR
Chain of hemoglobin (Hb) (P68871 2-147 limits assumed): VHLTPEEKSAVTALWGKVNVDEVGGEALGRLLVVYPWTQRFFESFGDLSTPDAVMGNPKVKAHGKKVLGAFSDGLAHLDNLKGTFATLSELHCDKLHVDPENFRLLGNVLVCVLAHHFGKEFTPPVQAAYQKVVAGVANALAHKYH

## O=C(O)C(COP(=O)(O)O)OP(=O)(O)O (stereo not drawn) [2,3-BPG, 2,3-bisphosphorglycerate]
12 mM 2,3-BPG, fixed oxygen partial pressure of 20 mmHg, 80% where no 2,3-BPG is present (FIG. 3)
  oxygen saturation fraction of hemoglobin (Hb): 35%
12 mM 2,3-BPG, oxygen partial pressure 20 mmHg, 20% without 2,3-BPG
  oxygen release efficiency of Hb: 65%
2,3-BPG concentrations 0.2-12 mM (FIG. 3)
  P50 value / shift of oxygen equilibrium curve with concentration: the P50 value is higher
PO2=20 mmHg, 1.2 mM 2,3-BPG alone
  oxygen release efficiency: 40%
PO2=20 mmHg, 1.2 mM 2,3-BPG alone (FIG. 6)
  oxygen saturation fraction: approximately 60%
Approximately 4 mM 2,3-BPG, no phthalide compound (FIG. 5)
  P50 value of hemoglobin (Hb): 18.8 mmHg

## CCC/C=C1\OC(=O)c2ccccc21 [Z-Butylidenephthalide, Z-butylidenephthalide]
Shortest detection time frame (30 minutes) (FIG. 2)
  effect on oxygen release efficiency of hemoglobin (Hb) from resulting P50 values: increasing the oxygen release efficiency of hemoglobin (Hb)

## CCC/C=C1\OC(=O)C2=C1CCC=C2 [Z-ligustilide]
  effect of phthalide compound together with 2,3-BPG on oxygen release efficiency of hemoglobin (Hb): synergistic effect

## CCC/C=C1\OC(=O)C2=C1CC[C@@H](O)[C@@H]2O [senkyunolide I]
  effect of phthalide compound together with 2,3-BPG on oxygen release efficiency of hemoglobin (Hb): synergistic effect
